Like-named read-outs stand apart in the source and are kept apart here.
Key:
Caco-2 cell monolayers = test: Permeability across Caco-2 cell monolayers; assay type: in vitro ADME
Excerpt: (§1) There are two major barriers to deliver treprostinil in the circulatory system. One of these barriers is that treprostinil undergoes a large first pass effect. […] The permeability of treprostinil has been measured across Caco-2 cell monolayers. […] It is believed that the p-glycoprotein efflux pump prevents certain pharmaceutical compounds from traversing the mucosal cells of the small intestine and, therefore, from being absorbed into systemic circulation.

[1] = First pass effect on circulating through the liver; assay type: in vivo
Excerpt: as §1

[2] = Skin contact irritation testing
Excerpt: In contrast, some of the compounds disclosed herein, generally as prodrugs of treprostinil, are not irritating to the skin. Accordingly, the present compounds are well suited for topical or transdermal administration.

[3] = rat, in vivo
in vivo = details: male, Sprague-Dawley, rat
[4] = Bioavailability and pharmacokinetics of treprostinil in rats after intravenous, intraportal vein, intraduodenal, intracolonic and oral dosing (Example 1); details: rats dosed via the portal vein, 1 mg/kg, before the thirty-minute sample
[5] = male, Sprague-Dawley, iv, 1 mg/kg
[6] = 1 mg/kg, Average (n = 3) plasma concentrations
[7] = 1 mg/kg, Average plasma concentrations
[8] = iv, 1 mg/kg, Average (n = 3) plasma concentrations
[9] = po, 1 mg/kg, Average (n = 3) plasma concentrations

In the case of `CCCCC[C@H](O)CC[C@@H]1[C@H]2Cc3cccc(OCC(=O)O)c3C[C@H]2C[C@H]1O` [Treprostinil, treprostinil], the apical to basal transport rate (Caco-2 cell monolayers) is reported as 1.39e-06 cm/s, the basal to apical transport rate (Caco-2 cell monolayers) is reported as 1.23e-05 cm/s and the “absorbed dose left after first pass” value [1] is reported as “about 40%”. For the same compound, the “treprostinil plasma levels metabolized upon first circulating through the liver” value [1] was “about 60%”, the “skin irritation upon skin contact” value [2] was “can be irritating upon skin contact” and the “compound absorbed in the intestine” value ([3]; male, Sprague-Dawley) was “approximately 60%”. For the same compound, the Tmax ([3]; male, Sprague-Dawley, 1 mg/kg) was 2 min, the “Average (n = 3) plasma concentrations” value ([3]; male, Sprague-Dawley, 1 mg/kg, 360 min) was 0.06^λ ng/mL and the “Average (n = 3) plasma concentrations” value ([3]; male, Sprague-Dawley, 1 mg/kg, 480 min) was 0.20^λ ng/mL. For the same compound, the CLs [3, 5] was 88.54 mL/min/kg, the “Volume of Distribution” value [3, 5] was 1.98 L/kg and the “distribution and elimination of the compound that occurs by 60 minutes post-dosing” value ([3]; male, Sprague-Dawley, iv, 60 min) was “over 90%”. The Clinical observations ([3]; iv, 1 mg/kg) was “extreme lethargy”, the concentration at 360 min (in vivo; [6]) was 0.89 ng/mL and the concentration at 480 min (in vivo; [6]) was 0.9 ng/mL. The concentration at 2 min (in vivo; [7]) was 302 ng/mL, the concentration at 5 min (in vivo; [7]) was 97.4 ng/mL and the concentration at 15 min (in vivo; [7]) was 48 ng/mL. The concentration at 30 min (in vivo; [7]) was 21.9 ng/mL, the concentration at 60 min (in vivo; [7]) was 11.1 ng/mL and the concentration at 120 min (in vivo; [7]) was 3.87 ng/mL. For the same compound, the concentration at 240 min (in vivo; [7]) was 2.51 ng/mL, the concentration at 360 min (in vivo; [7]) was 4.95 ng/mL and the concentration at 480 min (in vivo; [7]) was 5.14 ng/mL. The Tmax (in vivo) was at most 5 min, the Vd (in vivo; iv, 1 mg/kg) was 1.98 L/kg and the clearance (in vivo; iv, 1 mg/kg) was 88.5 mL/min/kg. The concentration at 2 min (in vivo; [8]) was 1050 ng/mL, the concentration at 5 min (in vivo; [8]) was 364 ng/mL and the concentration at 15 min (in vivo; [8]) was 131 ng/mL. The concentration at 30 min (in vivo; [8]) was 55.6 ng/mL, the concentration at 60 min (in vivo; [8]) was 14.4 ng/mL and the concentration at 120 min (in vivo; [8]) was 4.45 ng/mL. For the same compound, the concentration at 240 min (in vivo; [8]) was 1.09 ng/mL, the concentration at 360 min (in vivo; [8]) was 0.5 ng/mL and the concentration at 480 min (in vivo; [8]) was 0.3 ng/mL. It also gave an AUC(0-t) (in vivo; iv, 1 mg/kg, Average AUC480 min) of 188 ng·h/mL, a Cmax (in vivo; iv, 1 mg/kg) of 2120 ng/mL and an AUC(0-t) (in vivo; iv, 1 mg/kg, Individual AUC480 min) of 172 ng·h/mL. It also gave a Tmax (in vivo; iv, 1 mg/kg) of 0 min, a half-life (in vivo; iv, 1 mg/kg, T½ (terminal plasma half-life)) of 94 min and a half-life (in vivo; iv, 1 mg/kg, half-life of the distribution phase) of 10.3 min. The concentration at 5 min (in vivo; [9]) was 4.52 ng/mL, the concentration at 15 min (in vivo; [9]) was 2.9 ng/mL and the concentration at 30 min (in vivo; [9]) was 3.67 ng/mL. For the same compound, the concentration at 60 min (in vivo; [9]) was 2.06 ng/mL, the concentration at 120 min (in vivo; [9]) was 4.52 ng/mL and the concentration at 240 min (in vivo; [9]) was 1.82 ng/mL. The concentration at 360 min (in vivo; [9]) was 0.9 ng/mL, the concentration at 480 min (in vivo; [9]) was 0.96 ng/mL and the AUC(0-t) (in vivo; po, 1 mg/kg, Average AUC480 min) was 17.3 ng·h/mL. The bioavailability (in vivo; po, 1 mg/kg, Average Bioavailability (%) ± SD) was 9.2 ± 1.4%, the Cmax (in vivo; po, 1 mg/kg) was 5 ng/mL and the AUC(0-t) (in vivo; po, 1 mg/kg, Individual AUC480 min) was 16.6 ng·h/mL. For the same compound, the bioavailability (in vivo; po, 1 mg/kg, Individual Bioavailability) was 8.9%, the Tmax (in vivo; po, 1 mg/kg) was 5 min and the Mortality [4] was “One rat (#123) expired”.

Reference: US11292758B2, “Compounds and methods for delivery of prostacyclin analogs” (United Therapeutics Corporation, priority 2003, dated 2022)
